ChEMBL document CHEMBL1201862, “PubChem BioAssay data set” (2004)
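Values below derive from 48-hour exposures of cells grown in 96-well plates, with endpoints linearly interpolated between the two concentrations bracketing the appropriate inhibition level. GI50: concentration for 50% inhibition of growth.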 Activity calls are given as the source filed them. No stated cut-off is given here; in the data, active = GI50 up to about 1.1 µM and inactive = higher.

Legend:
Assay in all cases: inhibition of tumour cell growth, NCI panel, 48 h
[1] = tested on: MCF7
[2] = tested on: SK-MEL-28
[3] = tested on: BT-549
[4] = tested on: OVCAR-5
[5] = tested on: Malme-3M
[6] = tested on: COLO 205
[7] = tested on: M14
[8] = tested on: LOX IMVI
[9] = tested on: HT-29
[10] = tested on: MOLT-4
[11] = tested on: DU-145
[12] = tested on: EKVX
[13] = tested on: SW-620
[14] = tested on: SN12C
[15] = tested on: RXF 393
[16] = tested on: UO-31
[17] = tested on: SNB-19
[18] = tested on: SK-OV-3
[19] = tested on: HOP-92
[20] = tested on: UACC-62

| SMILES | GI50 [1] | GI50 [2] | GI50 [3] | GI50 [4] | GI50 [5] | GI50 [6] | GI50 [7] | GI50 [8] | GI50 [9] | GI50 [10] | GI50 [11] | GI50 [12] | GI50 [13] | GI50 [14] | GI50 [15] | GI50 [16] | GI50 [17] | GI50 [18] | GI50 [19] | GI50 [20] |
| --- | --- | --- | --- | --- | --- | --- | --- | --- | --- | --- | --- | --- | --- | --- | --- | --- | --- | --- | --- | --- |
| COC(=O)/C=C\C(C#N)(C#N)/N=C/c1ccccc1 | 2.09 µM (inactive) | 6 µM (inactive) | 5.2 µM (inactive) | 19 µM (inactive) | 2.21 µM (inactive) | 1.62 µM (inactive) | 2.25 µM (inactive) | 2.32 µM (inactive) | 4.49 µM (inactive) | 0.953 µM (active) | 17.1 µM (inactive) | 12.8 µM (inactive) | 1.46 µM (inactive) | 11.1 µM (inactive) | 1.94 µM (inactive) | 2.42 µM (inactive) | 23.9 µM (inactive) | 18.3 µM (inactive) | 1.55 µM (inactive) | 14.5 µM (inactive) |
| [N-]=[N+]=Nc1ccc2c(c1)Sc1ccccc1N2CCCCN1CCN(C(=O)CCNC(=O)Cc2ccc(C(=O)c3ccccc3)cc2)CC1 | 2.33 µM (inactive) | 4.81 µM (inactive) | 5.06 µM (inactive) | 6.53 µM (inactive) | 5.2 µM (inactive) | 3.39 µM (inactive) | 4.75 µM (inactive) | 2.23 µM (inactive) | 1.98 µM (inactive) | 1.54 µM (inactive) | 4.93 µM (inactive) | 3.18 µM (inactive) | 9.66 µM (inactive) | 7.26 µM (inactive) | 10.9 µM (inactive) | 5.32 µM (inactive) | 8.17 µM (inactive) | 27.9 µM (inactive) | 6.71 µM (inactive) | 6.05 µM (inactive) |
| Cc1oc2c(cc(O)c3cc(O)ccc32)c2cccc1-2 | 33.4 µM (inactive) | > 100 µM (inactive) | 0.697 µM (active) | > 100 µM (inactive) | > 100 µM (inactive) | > 100 µM (inactive) | > 100 µM (inactive) | > 100 µM (inactive) | > 100 µM (inactive) | > 100 µM (inactive) | > 100 µM (inactive) | > 100 µM (inactive) | > 100 µM (inactive) | > 100 µM (inactive) | > 100 µM (inactive) | > 100 µM (inactive) | > 100 µM (inactive) | > 100 µM (inactive) | > 100 µM (inactive) | > 100 µM (inactive) |
| CC1(C)Oc2ccc3ccc(=O)oc3c2C(O)C1O (stereo not drawn) | 33.9 µM (inactive) | 37.5 µM (inactive) | 22.5 µM (inactive) | > 100 µM (inactive) | 40.3 µM (inactive) | 21.8 µM (inactive) | 36.6 µM (inactive) | 29.5 µM (inactive) | 28.1 µM (inactive) | 21.7 µM (inactive) | 55.8 µM (inactive) | 48.1 µM (inactive) | 61.1 µM (inactive) | > 100 µM (inactive) | 67.1 µM (inactive) | 27.5 µM (inactive) | > 100 µM (inactive) | – | 57.8 µM (inactive) | 8.39 µM (inactive) |
| O=C(/C=C/c1cccc(Oc2ccccc2)c1)NCc1ccc(C(=O)NCc2ccccc2)cc1 | > 100 µM (inactive) | > 100 µM (inactive) | 60.1 µM (inactive) | > 100 µM (inactive) | 41.3 µM (inactive) | > 100 µM (inactive) | > 100 µM (inactive) | > 100 µM (inactive) | 17.3 µM (inactive) | > 100 µM (inactive) | > 100 µM (inactive) | > 100 µM (inactive) | > 100 µM (inactive) | > 100 µM (inactive) | 12.2 µM (inactive) | > 100 µM (inactive) | 32.4 µM (inactive) | 4.55 µM (inactive) | 37.8 µM (inactive) | 79.8 µM (inactive) |
| O=C1CCSc2c(cnc3ccccc23)N1 | 97.1 µM (inactive) | > 100 µM (inactive) | 27.4 µM (inactive) | > 100 µM (inactive) | > 100 µM (inactive) | > 100 µM (inactive) | > 100 µM (inactive) | 58.2 µM (inactive) | > 100 µM (inactive) | > 100 µM (inactive) | > 100 µM (inactive) | 32.1 µM (inactive) | > 100 µM (inactive) | > 100 µM (inactive) | 34.4 µM (inactive) | 60.7 µM (inactive) | – | > 100 µM (inactive) | > 100 µM (inactive) | > 100 µM (inactive) |
| O=C1NC(=S)NC(=O)C1C(c1ccc(Cl)cc1)C1C(=O)NC(=S)NC1=O.c1ccncc1 | > 100 µM (inactive) | > 100 µM (inactive) | > 100 µM (inactive) | > 100 µM (inactive) | 60.8 µM (inactive) | > 100 µM (inactive) | > 100 µM (inactive) | > 100 µM (inactive) | > 100 µM (inactive) | > 100 µM (inactive) | > 100 µM (inactive) | 86.1 µM (inactive) | > 100 µM (inactive) | > 100 µM (inactive) | > 100 µM (inactive) | > 100 µM (inactive) | > 100 µM (inactive) | – | > 100 µM (inactive) | > 100 µM (inactive) |
| O=C1NC(=S)N/C1=C\c1ccc(Br)s1 | > 100 µM (inactive) | > 100 µM (inactive) | 40.4 µM (inactive) | > 100 µM (inactive) | > 100 µM (inactive) | > 100 µM (inactive) | – | > 100 µM (inactive) | 85.1 µM (inactive) | 21.4 µM (inactive) | > 100 µM (inactive) | 10.3 µM (inactive) | > 100 µM (inactive) | > 100 µM (inactive) | > 100 µM (inactive) | 55.2 µM (inactive) | 90.2 µM (inactive) | > 100 µM (inactive) | 82 µM (inactive) | 28 µM (inactive) |
| C=C1c2nc3ccccc3n2C=C(c2ccccc2)N1c1ccc(OC)cc1 | 6.81 µM (inactive) | – | 13.5 µM (inactive) | 43.7 µM (inactive) | 14.2 µM (inactive) | 25.4 µM (inactive) | 13.2 µM (inactive) | 50 µM (inactive) | – | 18.9 µM (inactive) | 26.4 µM (inactive) | 23.9 µM (inactive) | 47.5 µM (inactive) | 65.3 µM (inactive) | 11.7 µM (inactive) | 4.52 µM (inactive) | – | 34.6 µM (inactive) | 31.1 µM (inactive) | 17.7 µM (inactive) |
| COC(=O)C1CN=CN1CCc1ccccc1 (stereo not drawn) | > 100 µM (inactive) | > 100 µM (inactive) | > 100 µM (inactive) | > 100 µM (inactive) | > 100 µM (inactive) | > 100 µM (inactive) | > 100 µM (inactive) | > 100 µM (inactive) | > 100 µM (inactive) | > 100 µM (inactive) | > 100 µM (inactive) | > 100 µM (inactive) | > 100 µM (inactive) | – | > 100 µM (inactive) | > 100 µM (inactive) | > 100 µM (inactive) | > 100 µM (inactive) | > 100 µM (inactive) | > 100 µM (inactive) |
| S=C(NCc1ccccc1)c1nc[nH]c1C(=S)NCc1ccccc1 | 2.55 µM (inactive) | 12.4 µM (inactive) | 13.3 µM (inactive) | 6.98 µM (inactive) | 11 µM (inactive) | 3.48 µM (inactive) | 5.55 µM (inactive) | 4.72 µM (inactive) | 6.84 µM (inactive) | 4.85 µM (inactive) | 9.27 µM (inactive) | 4.34 µM (inactive) | 4.98 µM (inactive) | 11.7 µM (inactive) | 11.1 µM (inactive) | – | 5.4 µM (inactive) | 12.7 µM (inactive) | 1.88 µM (inactive) | 3.2 µM (inactive) |
| OCC1OC(O)C(/N=C\c2ccc3c(c2)OCO3)C(O)C1O (stereo not drawn) | > 100 µM (inactive) | > 100 µM (inactive) | > 100 µM (inactive) | > 100 µM (inactive) | > 100 µM (inactive) | > 100 µM (inactive) | > 100 µM (inactive) | > 100 µM (inactive) | > 100 µM (inactive) | > 100 µM (inactive) | > 100 µM (inactive) | > 65.3 µM (inactive) | > 100 µM (inactive) | – | > 100 µM (inactive) | > 100 µM (inactive) | > 100 µM (inactive) | > 100 µM (inactive) | > 100 µM (inactive) | > 100 µM (inactive) |
| O=C(CSc1nc2ccc(I)cc2c(=O)n1Cc1ccccc1)NNC(=O)c1ccccc1 | 9.82 µM (inactive) | 15.4 µM (inactive) | 7.31 µM (inactive) | 16 µM (inactive) | – | 18.9 µM (inactive) | 29.3 µM (inactive) | 22.5 µM (inactive) | 19.8 µM (inactive) | 11.4 µM (inactive) | 13.9 µM (inactive) | 4.06 µM (inactive) | 36.1 µM (inactive) | 17.1 µM (inactive) | 4.73 µM (inactive) | 1.15 µM (inactive) | 21.3 µM (inactive) | 17.2 µM (inactive) | 8.24 µM (inactive) | 14.2 µM (inactive) |
| COc1ccc2c(c1)C1Oc3ccccc3CC1CO2 (stereo not drawn) | 78.2 µM (inactive) | – | 52.2 µM (inactive) | > 100 µM (inactive) | 54 µM (inactive) | 53.1 µM (inactive) | 75.3 µM (inactive) | 47.2 µM (inactive) | 42 µM (inactive) | 21.5 µM (inactive) | > 100 µM (inactive) | 47.2 µM (inactive) | 63.1 µM (inactive) | 35.4 µM (inactive) | 24.9 µM (inactive) | 22.3 µM (inactive) | > 100 µM (inactive) | 97.5 µM (inactive) | 25.2 µM (inactive) | 98.2 µM (inactive) |
